Measured values taken from patent US20200207734A1, “HETEROCYCLIC COMPOUND AND USE THEREOF” (Takeda Pharmaceutical Company Limited, priority 2017, published 2020).

How the values were obtained:
[1] = Evaluation of microsome stability in human; format: in vitro ADME; settings: human liver microsomes 0.2 mg/mL, 1 μmol/L test compound, pH 7.4, NADPH-generating system, 15 and 30 min; read-out: Clearance (in vitro intrinsic metabolic clearance)
Protocol: Human liver microsomes were purchased from Xenotech, LLC (Lenexa, Kans.). An incubation mixture consisted of microsomes in 50 mmol/L KH2PO4—K2HPO4 phosphate buffer (pH 7.4) and 1 μmol/L test compound. The concentration of microsomal protein was 0.2 mg/mL. An NADPH-generating system (5 mmol/L MgCl2, 5 mmol/L glucose-6-phosphate, 0.5 mmol/L beta-NADP+ and 1.5 unit/mL glucose-6-phosphate dehydrogenase) was added to the incubation mixture with a half volume of the reaction mixture to initiate the enzyme reaction. The reaction was terminated 15 and 30 minutes after the initiation of the reaction by mixing the reaction mixture with acetonitrile, followed by centrifugation at 2500 rpm for 10 min. The supernatant was subjected to LC/MS/MS analysis. The metabolic velocity was calculated as the slope of the concentration-time plot. The in vitro intrinsic metabolic clearance was calculated by dividing initial metabolic velocity by the test compound concentration in the incubation mixture.

cynomolgus monkeys = test: Evaluation of wake-promoting effects in cynomolgus monkeys (EEG/EMG/EOG); format: in vivo; settings: for response vs control in vivo at 1 mg/kg: Macaca fascicularis, sc, 4 h, s.c., cynomolgus monkeys, administered at ZT12, read-out: Wakefulness time (% of vehicle treatment) (Mean, n = 1-2); for Wakefulness time (% of vehicle treatment): 10 mg/kg, p.o., at ZT12, 4 h after administration, male cynomolgus monkeys, Mean, n = 4-8, cross-over design
Protocol: The wake-promoting effects were evaluated by measuring the electroencephalogram (EEG), electromyogram (EMG) and electrooculogram (EOG) in cynomolgus monkeys. Under isoflurane anesthesia (1-5%, Pfizer Japan Inc., Tokyo, Japan), male cynomolgus monkeys (3-5 years old, Hamri Co., Ltd., Ibaraki, Japan) were surgically implanted with radio-telemetry transmitters (TL10M3-D70-EEE, Data Sciences International Inc., MN, USA). EEG leads were stereotaxically positioned at the parietal area and secured to the cranium with stainless-steel screws in contact with the dura. […] Bilateral EMG leads were implanted into the back cervical muscles. After the surgery, each monkey was given penicillin (100,000 units/head, i.m., Meiji Seika Pharma Co., Ltd., Tokyo, Japan), buprenorphine (0.02 mg/kg, i.m., Otsuka Pharmaceutical Co., Ltd., Tokyo, Japan) and prednisolone (1 mg/kg, s.c., Kyoritsu Seiyaku Co., Ltd., Tokyo, Japan) daily for one week. After at least a 1-month recovery period in home cages, the monkeys were habituated to the recording chamber (an acrylic cage 60W×55D×75H (cm)) located in a soundproof, electrically shielded room. After we confirmed that monkeys slept sufficiently in the experimental room, cortical EEG, EMG and EOG signals were recorded using Dataquest ART software (Data Sciences International Inc., MN, USA). The signals were semi automatically scored in 20 sec epochs by a sleep scoring system (SleepSign, Kissei Comtec Co., Ltd., Nagano, Japan). This preliminary scoring was visually inspected and corrected if necessary. Test compound (10 mg/kg, Table 4-1) suspended in 0.5% methylcellulose aqueous solution, or vehicle (i.e., 0.5% methylcellulose aqueous solution) was administered orally (p.o.) to monkeys at zeitgeber time 12 (ZT12) in a volume of 5 mL/kg body weight in a cross-over design. EEG, EMG and EOG recordings were performed for 4 h after the compound administration/treatments. The time spent in wakefulness for 4 h after administration (% of vehicle treatment) was calculated by using SleepSign. Test compound (1 mg/kg, Table 4-2) dissolved in a mixed solution comprising 5% DMSO, 5% Cremophor EL, 20% PEG400 and 70% soluplus (1% (w/v)), or vehicle (i.e., a mixed solution comprising 5% DMSO, 5% Cremophor EL, 20% PEG400 and 70% soluplus (1% (w/v))) was administered subcutaneously (s.c.) to monkeys at ZT12 in a volume of 0.5 mL/kg body weight in a pre-post design. EEG, EMG and EOG recordings were performed for 4 h after the compound administration/treatments. The time spent in wakefulness for 4 h after administration (% of vehicle treatment) was calculated by using SleepSign.

[2] = molecular target: T1, human orexin type 2 receptor (Homo sapiens, UniProt O43614); test: Measurement of orexin type 2 receptor agonist activity (calcium fluorescence, CHO cells expressing hOX2R); format: cell-based; settings: test compound 3 μM; CHO cells expressing human OX2 receptor; DMSO = 0%, orexin A (human) = 100%
T1 construct: human orexin type 2 receptor cDNA was inserted into pcDNA3.1(+) plasmid vector (Invitrogen); expressed in transfected cells
T1 sequence (O43614 1-444): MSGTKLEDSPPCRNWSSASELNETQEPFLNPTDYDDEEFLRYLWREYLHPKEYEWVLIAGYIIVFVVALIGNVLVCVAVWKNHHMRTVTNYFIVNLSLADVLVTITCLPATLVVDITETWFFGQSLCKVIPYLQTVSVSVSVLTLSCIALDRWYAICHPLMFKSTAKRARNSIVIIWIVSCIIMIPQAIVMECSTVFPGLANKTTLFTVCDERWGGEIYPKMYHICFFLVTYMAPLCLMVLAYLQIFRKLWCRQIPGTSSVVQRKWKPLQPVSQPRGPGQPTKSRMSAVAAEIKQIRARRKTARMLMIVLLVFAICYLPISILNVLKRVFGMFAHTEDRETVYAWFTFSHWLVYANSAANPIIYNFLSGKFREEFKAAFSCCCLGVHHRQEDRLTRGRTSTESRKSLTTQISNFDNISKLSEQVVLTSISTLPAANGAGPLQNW
Procedure, shortened: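 CHO-dhfr cells stably expressing hOX2R, loaded with Fluo-4 AM in HBSS/20 mM HEPES/0.1% BSA with probenecid, then given test compound. Calcium fluorescence was read for about 2 min 40 sec. Activity (%) was scaled between DMSO (0%) and 10 nM final human orexin A (100%).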

Structure (SMILES) | microsomal CLint at 1 μmol/L [1] [µL/min/mg] | response vs control in vivo at 1 mg/kg (cynomolgus monkeys) [%] | OX2R agonist activity (3 μM, %) [2] [%] | Wakefulness time (% of vehicle treatment) (cynomolgus monkeys)
CC(C)(O)C(=O)N1CC[C@H](NS(=O)(=O)C2(F)CC2)[C@@H]1Cc1cccc(-c2cccc(F)c2)c1F [Example 450, N-[(2S,3S)-2-[(2,3′-difluoro[1,1′-biphenyl]-3-yl)methyl]-1-(2-hydroxy-2-methylpropanoyl)pyrrolidin-3-yl]-1-fluorocyclopropane-1-sulfonamide] | 78 | 243 | 107 | 
CCS(=O)(=O)N[C@H]1CCN(C(=O)C(C)(C)O)[C@H]1Cc1cccc(-c2cccc(F)c2)c1F [Example 482, N-((2S,3S)-2-((2,3′-difluorobi-phenyl-3-yl)methyl)-1-(2-hydroxy-2-methylpropanoyl)pyrrolidin-3-yl)ethanesulfonamide] | 26 |  | 110 | 280.82 % of vehicle treatment
CC(C)(O)C(=O)N1CC[C@H](NS(C)(=O)=O)[C@@H]1Cc1cccc(-c2cc(F)cc(F)c2)c1F [Example 483, N-((2S,3S)-1-(2-hydroxy-2-methyl-propanoyl)-2-((2,3′,5′-trifluorobi-phenyl-3-yl)methyl)pyrrolidin-3-yl)methanesulfonamide] | 6 |  | 103 | 359.35 % of vehicle treatment
CCS(=O)(=O)N[C@H]1CCN(C(=O)C(C)(C)O)[C@H]1Cc1cccc(-c2cc(F)cc(F)c2)c1F [Example 484, N-((2S,3S)-1-(2-hydroxy-2-methyl-propanoyl)-2-((2,3′,5′-trifluorobi-phenyl-3-yl)methyl)pyrrolidin-3-yl)ethanesulfonamide] | 23 |  | 112 | 492.32 % of vehicle treatment
CCS(=O)(=O)N[C@H]1CCN(C(=O)N(C)C)[C@H]1Cc1cccc(-c2cccc(F)c2)c1F [Example 486, (2S,3S)-2-((2,3′-difluorobiphenyl-3-yl)methyl)-3-((ethylsulfonyl)amino)-N,N-dimethylpyrrolidine-1-carboxa-mide] |  | 328 | 102 | 
CCS(=O)(=O)N[C@H]1CCN(C(=O)N(C)C)[C@H]1Cc1cccc(-c2cc(F)cc(F)c2)c1F [Example 487, (2S,3S)-3-((ethylsulfonyl)amino)-N,N-dimethyl-2-((2,3′,5′-trifluorobi-phenyl-3-yl)methyl)pyrrolidine-1-carboxamide] |  | 355 | 104 | 
